From patent publication US20240207292A1, “BORONIC ACID COMPOUNDS, COMPOSITIONS AND METHODS” (Trustees of Tufts College, priority 2021, published 2024)
Square brackets hold non-standard residues; d marks the D form. Peptide text beside a SMILES is read from it. * marks the point of attachment. DOTA(Ga) = O=C1CN2CCN3CCN(CC(=O)*)CCN(CC2)CC(=O)[O][Ga]([O]1)[O]C(=O)C3; DOTAGA = O=C(O)CN1CCN(CC(=O)O)CCN(C(CCC(=O)*)C(=O)O)CCN(CC(=O)O)CC1; DOTA = O=C(O)CN1CCN(CC(=O)O)CCN(CC(=O)*)CCN(CC(=O)O)CC1; X6 = CN1CC(=O)C2(C1)OC([C@@H]1CCCN1*)OC2=O; boroPro = OB(O)[C@@H]1CCCN1*

Molecular target: recombinant human fibroblast activation protein (FAP) (Homo sapiens (Human), UniProt Q12884)
Assay: In vitro assay fibroblast activation protein IC50 (Example 21)
Assay type: biochemical
Details: not given
Description: (§1) The purpose of this assay is to determine the IC50 of various inhibitors against recombinant human dipeptidyl peptidase IV (DPPIV), fibroblast activation protein (FAP) or prolyl oligopeptidase (PREP).
(§2) The assays are conducted in the following steps: • 1 Dissolve the compound in DMSO to a final concentration of 100 mM. From this, prepare a 1 mM stock at pH 7.5 in 50 mM Tris, 140 mM NaCl Buffer (FAP)/pH 7.5 in 25 mM Tris, 250 mM NaCl Buffer/[…]. • 2. Serial dilute (1:10) the 1 mM compound stocks prepared previously into the appropriate assay buffer (FAP: 50 mM Tris, 140 mM NaCl, pH 7.5/PREP: 25 mM Tris, 0.25 M NaCl, pH 7.5/DPPIV: 25 mM Tris, pH 8.0) to one row of a 96-well plate. • 3. […] Dilute the enzymes into their appropriate assay buffers. The final enzyme concentrations should be 0.1, 1.2, and 0.6 nM for DPPIV, FAP and PREP respectively. Add 180 μL to each well needed in columns 2-10. Column 1(A,B,C) should be prepared with 200 μl of appropriate assay buffer as control. Column 1(D,E,F,G,H) should be prepared with 20 μl of appropriate assay buffer and 180 ul enzyme as no inhibitor control. • 5. Add 20 μL of the compound of interest from the dilution plate prepared in step 2 to columns 2-10 of the assay plate where appropriate. Each sample should be tested in triplicate. Allow this to incubate for 10 minutes at room temperature, shaking the plate for the first two minutes. • 6. Add 10 μL of 20× substrate prepared in step 3 to each well and allow this to incubate for 15 minutes at room temperature, shaking the plate for the first two minutes. • 7. Read the fluorescence at λex: 380, λem: 460. (DPcore=[dAla|dSer|Gly]-[boroPro|Pro-nitrile], XXaa=alpha-amino acid)

Chain of recombinant human fibroblast activation protein (FAP) (Q12884 whole entry): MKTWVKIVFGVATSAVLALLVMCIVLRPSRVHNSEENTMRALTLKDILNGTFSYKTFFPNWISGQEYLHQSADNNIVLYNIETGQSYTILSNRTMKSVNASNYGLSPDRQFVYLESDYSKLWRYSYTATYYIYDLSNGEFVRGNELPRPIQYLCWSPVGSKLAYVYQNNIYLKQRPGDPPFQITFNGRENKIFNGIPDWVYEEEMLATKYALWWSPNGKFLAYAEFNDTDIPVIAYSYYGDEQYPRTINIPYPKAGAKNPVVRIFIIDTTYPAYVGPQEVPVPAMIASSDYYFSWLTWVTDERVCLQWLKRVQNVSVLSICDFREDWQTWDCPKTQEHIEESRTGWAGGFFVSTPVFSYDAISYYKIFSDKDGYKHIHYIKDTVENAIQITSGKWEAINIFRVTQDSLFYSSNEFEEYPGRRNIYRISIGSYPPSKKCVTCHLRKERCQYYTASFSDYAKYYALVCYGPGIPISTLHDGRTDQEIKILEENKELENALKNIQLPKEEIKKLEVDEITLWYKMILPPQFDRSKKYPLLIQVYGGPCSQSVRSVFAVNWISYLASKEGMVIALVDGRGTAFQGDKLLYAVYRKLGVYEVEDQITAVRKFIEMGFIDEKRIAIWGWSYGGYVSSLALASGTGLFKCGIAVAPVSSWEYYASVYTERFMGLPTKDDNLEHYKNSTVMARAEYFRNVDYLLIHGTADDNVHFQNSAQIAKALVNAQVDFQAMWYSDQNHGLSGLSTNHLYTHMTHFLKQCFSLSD

Structure (SMILES) | IC50
C[C@@H](NC(=O)c1ccc(NNC(=O)CCCCC[N+]2=C(/C=C/C3=C(Oc4ccc(S(=O)(=O)O)cc4)C(=C/C=C4/N(CCCCS(=O)(=O)O)c5ccc(S(=O)(=O)O)cc5C4(C)C)/CCC3)C(C)(C)c3cc(S(=O)(=O)O)ccc32)cc1)C(=O)N1CCC[C@H]1B(O)O [4613 C] | 1.7 nM
C[C@@H](NC(=O)c1ccc(NNC(=O)CN2CCN3CCN(CC(=O)O)CCN(CC2)CC(=O)[O][Cu][O]C(=O)C3)cc1)C(=O)N1CCC[C@H]1B(O)O [5183BU] | 10.3 nM
C[C@@H](NC(=O)c1ccc(NNC(=O)CN2CCN3CCN4CCN(CC2)CC(=O)[O][Ga]([O]C(=O)C3)[O]C(=O)C4)nc1)C(=O)N1CCC[C@H]1B(O)O [5183GA] | 46.1 nM
C[C@@H](NC(=O)c1ccc(NNC(=O)CNC(=O)CN2CCN3CCN(CC(=O)O)CCN(CC2)CC(=O)[O][Cu][O]C(=O)C3)cc1)C(=O)N1CCC[C@H]1B(O)O [6487CU] | 8.8 nM
C[C@@H](NC(=O)c1ccc(NNC(=O)CNC(=O)CN2CCN3CCN4CCN(CC2)CC(=O)[O][Ga]([O]C(=O)C3)[O]C(=O)C4)cc1)C(=O)N1CCC[C@H]1B(O)O [6487GA] | 20.8 nM
C[C@@H](NC(=O)c1ccc(NNC(=O)CCCNC(=O)CN2CCN3CCN4CCN(CC2)CC(=O)[O][Gd]([O]C(=O)C3)[O]C(=O)C4)nc1)C(=O)N1CCC[C@H]1B(O)O [6489 GD] | 1.1 nM
C[C@@H](NC(=O)c1ccc(NC(=O)CCCCNC(=O)CN2CCN3CCN4CCN(CC2)CC(=O)[O][Ga]([O]C(=O)C3)[O]C(=O)C4)cc1)C(=O)N1CCC[C@H]1B(O)O [6590 GA] | 15 nM
C[C@@H](NC(=O)c1ccc(NC(=O)CCNC(=O)CN2CCN3CCN4CCN(CC2)CC(=O)[O][Lu]([O]C(=O)C3)[O]C(=O)C4)cc1)C(=O)N1CCC[C@H]1B(O)O [6590LU] | 0.4 nM
CC(C)[C@H](NC(=O)c1ccc(CNC(=O)CN2CCN3CCN4CCN(CC2)CC(=O)[O][Ga]([O]C(=O)C3)[O]C(=O)C4)cc1)C(=O)N[C@H](C)C(=O)N1CCC[C@H]1B(O)O [6967 GA] | 65 nM
C[C@@H](NC(=O)c1ccc(NNC(=O)CCCCCNC(=O)CN2CCN(CC(=O)O)CCN(CC(=O)O)CCN(CC(=O)O)CC2)nc1)C(=O)N1CCC[C@H]1B(O)O [compound 6958] | 3.2 nM

Same assay, conditions: Z-Gly-Pro-AMC; 1.2 nM enzyme

Structure (SMILES) | IC50
C[C@@H](NC(=O)CN1CCN2CC(=O)O[C]3(CN4CCN5CC(=O)O[C](C1)(C5)[Gd]3[O]C(=O)C4)C2)C(=O)N1CCC[C@H]1B(O)O (some centres unmarked) [4535GD] | 760 nM
CC(C)[C@H](NC(=O)CNC(=O)CN1CCN2CCN3CCN(CC1)CC(=O)[O][Ga]([O]C(=O)C2)[O]C(=O)C3)C(=O)N[C@H](C)C(=O)N1CCC[C@H]1B(O)O [6521GA] | 277 nM
CC(C)[C@H](NC(=O)CNC(=O)CNC(=O)CN1CCN(CC(=O)O)CCN(CC(=O)O)CCN(CC(=O)O)CC1)C(=O)N[C@H](C)C(=O)N1CCC[C@H]1C1OC(=O)C2(CN(C)CC2=O)O1 (some centres unmarked) [6522M] ({DOTA}-GGV[dA]-X6) | 280 nM
CC(C)[C@H](NC(=O)CCCNC(=O)CN1CCN2CCN3CCN(CC1)CC(=O)[O][Ga]([O]C(=O)C2)[O]C(=O)C3)C(=O)N[C@H](C)C(=O)N1CCC[C@H]1B(O)O [6614GA, DOTA(Ga)-GABA-Val-D-ala-boroPro] | 218 nM
CC(C)[C@H](NC(=O)CNC(=O)CNC(=O)CNC(=O)CN1CCN2CCN3CCN(CC1)CC(=O)[O][Ga]([O]C(=O)C2)[O]C(=O)C3)C(=O)N[C@H](C)C(=O)N1CCC[C@H]1B(O)O [6834GA] ({DOTA(Ga)}-GGGV[dA]-boroPro) | 439 nM
CC(C)[C@H](NC(=O)CNC(=O)CNC(=O)CNC(=O)CNC(=O)CN1CCN2CCN3CCN(CC1)CC(=O)[O][Ga]([O]C(=O)C2)[O]C(=O)C3)C(=O)N[C@H](C)C(=O)N1CCC[C@H]1B(O)O [6839GA] ({DOTA(Ga)}-GGGGV[dA]-boroPro) | 258 nM
CC(C)[C@H](NC(=O)CNC(=O)CNC(=O)CNC(=O)CNC(=O)CNC(=O)CN1CCN2CCN3CCN(CC1)CC(=O)[O][Ga]([O]C(=O)C2)[O]C(=O)C3)C(=O)N[C@H](C)C(=O)N1CCC[C@H]1B(O)O [6848GA] ({DOTA(Ga)}-GGGGGV[dA]-boroPro) | 180 nM
CC(C)[C@H](NC(=O)CCCCNC(=O)CN1CCN2CCN3CCN(CC1)CC(=O)[O][Ga]([O]C(=O)C2)[O]C(=O)C3)C(=O)N[C@H](C)C(=O)N1CCC[C@H]1B(O)O [6940GA, DOTA(Ga)-PEN-Val-Dala-boroPro] | 110 nM
CC(C)[C@H](NC(=O)CCCCNC(=O)CN1CCN2CCN3CCN(CC1)CC(=O)[O][Lu]([O]C(=O)C2)[O]C(=O)C3)C(=O)N[C@H](C)C(=O)N1CCC[C@H]1B(O)O [6940LU, DOTA(Lu)-PEN-Val-Dala-boroPro] | 23.6 nM
CC(C)[C@H](NC(=O)CCCCCCCNC(=O)CN1CCN2CCN3CCN(CC1)CC(=O)[O][Ga]([O]C(=O)C2)[O]C(=O)C3)C(=O)N[C@H](C)C(=O)N1CCC[C@H]1B(O)O [6947GA, DOTA(Ga)-OCT-Val-Dala-boroPro] | 219 nM
CC(C)[C@H](NC(=O)CCCCCNC(=O)CN1CCN2CCN3CCN(CC1)CC(=O)[O][Ga]([O]C(=O)C2)[O]C(=O)C3)C(=O)N[C@H](C)C(=O)N1CCC[C@H]1B(O)O [6948GA, DOTA(Ga)-HEX-Val-Dala-boroPro] | 144 nM
CC(C)[C@H](NC(=O)CCCCCCNC(=O)CN1CCN2CCN3CCN(CC1)CC(=O)[O][Ga]([O]C(=O)C2)[O]C(=O)C3)C(=O)N[C@H](C)C(=O)N1CCC[C@H]1B(O)O [6949GA] | 181 nM
CC(C)[C@H](NC(=O)CCNC(=O)CN1CCN(CC(=O)O)CCN(CC(=O)O)CCN(CC(=O)O)CC1)C(=O)N[C@H](C)C(=O)N1CCC[C@H]1B(O)O [compound 6615, DOTA-betaala-Val-D-ala-boroPro] | 121 nM
CC(C)[C@H](NC(=O)CNC(=O)CNC(=O)CNC(=O)CCC(C(=O)O)N1CCN(CC(=O)O)CCN(CC(=O)O)CCN(CC(=O)O)CC1)C(=O)N[C@H](C)C(=O)N1CCC[C@H]1B(O)O (some centres unmarked) [compound 6808] ({DOTAGA}-GGGV[dA]-boroPro) | 11.5 nM
CC(C)[C@H](NC(=O)CNC(=O)CNC(=O)CNC(=O)CN1CCN(CC(=O)O)CCN(CC(=O)O)CCN(CC(=O)O)CC1)C(=O)N[C@H](C)C(=O)N1CCC[C@H]1B(O)O [compound 6834] ({DOTA}-GGGV[dA]-boroPro) | 26.8 nM
CC(C)[C@H](NC(=O)[C@@H](C)NC(=O)CNC(=O)CNC(=O)CNC(=O)CN1CCN(CC(=O)O)CCN(CC(=O)O)CCN(CC(=O)O)CC1)C(=O)N[C@H](C)C(=O)N1CCC[C@H]1B(O)O [compound 6839] ({DOTA}-GGG[dA]V[dA]-boroPro) | 21 nM
CC(C)[C@H](NC(=O)CNC(=O)CNC(=O)CNC(=O)CNC(=O)CNC(=O)CN1CCN(CC(=O)O)CCN(CC(=O)O)CCN(CC(=O)O)CC1)C(=O)N[C@H](C)C(=O)N1CCC[C@H]1B(O)O [compound 6848] ({DOTA}-GGGGGV[dA]-boroPro) | 14.8 nM
CC(C)[C@H](NC(=O)CNC(=O)CNC(=O)CNC(=O)CNC(=O)CNC(=O)CNC(=O)CN1CCN(CC(=O)O)CCN(CC(=O)O)CCN(CC(=O)O)CC1)C(=O)N[C@H](C)C(=O)N1CCC[C@H]1B(O)O [compound 6850] ({DOTA}-GGGGGGV[dA]-boroPro) | 21 nM
CC(C)[C@H](NC(=O)CNC(=O)CNC(=O)CNC(=O)CNC(=O)CCC(C(=O)O)N1CCN(CC(=O)O)CCN(CC(=O)O)CCN(CC(=O)O)CC1)C(=O)N[C@H](C)C(=O)N1CCC[C@H]1B(O)O (some centres unmarked) [compound 6868] ({DOTAGA}-GGGGV[dA]-boroPro) | 21 nM
CC(C)[C@H](NC(=O)CNC(=O)CNC(=O)CNC(=O)CNC(=O)CNC(=O)CCC(C(=O)O)N1CCN(CC(=O)O)CCN(CC(=O)O)CCN(CC(=O)O)CC1)C(=O)N[C@H](C)C(=O)N1CCC[C@H]1B(O)O (some centres unmarked) [compound 6869] ({DOTAGA}-GGGGGV[dA]-boroPro) | 1.1 nM
CC(C)[C@H](NC(=O)CNC(=O)CNC(=O)CNC(=O)CNC(=O)CNC(=O)CNC(=O)CCC(C(=O)O)N1CCN(CC(=O)O)CCN(CC(=O)O)CCN(CC(=O)O)CC1)C(=O)N[C@H](C)C(=O)N1CCC[C@H]1B(O)O (some centres unmarked) [compound 6870] ({DOTAGA}-GGGGGGV[dA]-boroPro) | 9.2 nM
CC(C)[C@H](NC(=O)CCCCNC(=O)CN1CCN(CC(=O)O)CCN(CC(=O)O)CCN(CC(=O)O)CC1)C(=O)N[C@H](C)C(=O)N1CCC[C@H]1B(O)O [compound 6940, DOTA-PEN-Val-D-alaboroPro] | 5.2 nM

Molecular target: recombinant human prolyl oligopeptidase (PREP) (Homo sapiens (Human), UniProt P48147)
Assay: In vitro assay prolyl oligopeptidase IC50 (Example 21)
Assay type: biochemical
Details: not given
Description: as §1, §2

Chain of recombinant human prolyl oligopeptidase (PREP) (P48147 whole entry): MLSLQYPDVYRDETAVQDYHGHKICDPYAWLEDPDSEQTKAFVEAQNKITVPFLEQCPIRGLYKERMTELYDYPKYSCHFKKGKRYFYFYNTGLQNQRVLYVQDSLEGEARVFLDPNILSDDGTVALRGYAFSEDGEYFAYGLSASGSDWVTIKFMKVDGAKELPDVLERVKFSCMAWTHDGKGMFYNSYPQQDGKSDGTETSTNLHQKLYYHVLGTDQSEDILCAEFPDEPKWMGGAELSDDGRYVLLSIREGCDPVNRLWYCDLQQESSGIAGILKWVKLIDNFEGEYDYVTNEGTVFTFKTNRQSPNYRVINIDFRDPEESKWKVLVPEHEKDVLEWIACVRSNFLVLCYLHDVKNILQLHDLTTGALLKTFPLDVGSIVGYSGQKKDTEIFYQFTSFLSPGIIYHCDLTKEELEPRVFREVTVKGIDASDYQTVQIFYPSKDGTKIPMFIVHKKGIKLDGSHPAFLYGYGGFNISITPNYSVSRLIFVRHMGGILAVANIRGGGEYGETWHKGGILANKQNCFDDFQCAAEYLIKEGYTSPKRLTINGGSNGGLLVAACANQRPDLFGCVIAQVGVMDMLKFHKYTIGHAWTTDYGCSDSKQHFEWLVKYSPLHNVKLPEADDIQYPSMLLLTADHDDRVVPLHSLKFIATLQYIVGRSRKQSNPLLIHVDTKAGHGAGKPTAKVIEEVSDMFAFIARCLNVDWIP

Structure (SMILES) | IC50
C[C@@H](NC(=O)c1ccc(NNC(=O)CCCCC[N+]2=C(/C=C/C3=C(Oc4ccc(S(=O)(=O)O)cc4)C(=C/C=C4/N(CCCCS(=O)(=O)O)c5ccc(S(=O)(=O)O)cc5C4(C)C)/CCC3)C(C)(C)c3cc(S(=O)(=O)O)ccc32)cc1)C(=O)N1CCC[C@H]1B(O)O [4613 C] | 610 nM
C[C@@H](NC(=O)c1ccc(NNC(=O)CNC(=O)CN2CCN3CCN4CCN(CC2)CC(=O)[O][Ga]([O]C(=O)C3)[O]C(=O)C4)cc1)C(=O)N1CCC[C@H]1B(O)O [6487GA] | 1200 nM

Same assay, conditions: Z-Gly-Pro-AMC; 0.6 nM enzyme

Structure (SMILES) | IC50
C[C@@H](NC(=O)CN1CCN2CC(=O)O[C]3(CN4CCN5CC(=O)O[C](C1)(C5)[Gd]3[O]C(=O)C4)C2)C(=O)N1CCC[C@H]1B(O)O (some centres unmarked) [4535GD] | > 10000 nM
